{"source": "paper PMC7417534", "about": "“Cytochrome P450 inhibition potential and initial genotoxic evaluation of 14-O-[(4,6-diaminopyrimidine-2-yl)thioacetyl] mutilin” (Scientific Reports, 2020)", "key": {"[1]": {"assay": "MTT cytotoxicity assay on Hep G2 cells", "format": "cell-based, human", "settings": "human, DPTM 4.98 mM, read-out: cell viability", "method": "(§1) Intrinsic toxicity of DPTM was conducted as described in the literature[36]–[38] with some modifications. […] After proliferating to logarithmic growth phase at 37 °C under 5% CO2, cells were seeded to a new 96-well plate with a density of […] and cultured for 24 h at the same condition. The media were replaced with 100 μL of serial dilutions of DPTM (10 mg DPTM was dissolved in 1 mL 1% DMSO to a solution and then diluted two-fold with distilled water to provide 19.91, 9.96, 4.98, 2.49, 1.25, 0.62, 0.31, 0.16 and 0.08 mM serial dilutions). The blank group only used 1% DMSO to replace the media. The obtained mixture was incubated for 24 h. After that, all media in cells were removed and 20 μL of MTT reagent was added for an additional 4 h. Then, supernatant fraction was removed and 100 μL dimethyl sulfoxide (DMSO) was added, followed by incubation at 37 °C for 15 min. The absorbance of each well was determined by a spectrophotometer at dual wavelengths of 570 and 279 nm for the background. The viability percentage was calculated by the following formula: cell viability % = (ODsample − ODblank/ODcontrol − ODblank) × 100. A sigmoid-shaped curve was fitted to the data, and the IC50 was calculated by fitting the Hill equation to the data with nonlinear regression (least-squares best fit modelling) using GraphPad Prism 4 (GraphPad Software Inc., San Diego, USA). […]"}, "Hep G2 cells": {"system": "Hep G2 cells", "assay": "MTT cytotoxicity assay on Hep G2 cells", "format": "cell-based, human", "settings": "Homo sapiens, HepG2, 24 h incubation, read-out: IC50 value, cell viability (MTT)", "method": "as §1"}, "CYP3A4": {"biological_target": "T1, CYP3A4 (Homo sapiens, UniProt P08684)", "T1 construct": "containing 100 μL RLMs or HLMs; tissue Research Institute for Liver Diseases (Shanghai) Co., Ltd; host or cells: pooled human liver microsomes", "T1 sequence (P08684 whole entry)": "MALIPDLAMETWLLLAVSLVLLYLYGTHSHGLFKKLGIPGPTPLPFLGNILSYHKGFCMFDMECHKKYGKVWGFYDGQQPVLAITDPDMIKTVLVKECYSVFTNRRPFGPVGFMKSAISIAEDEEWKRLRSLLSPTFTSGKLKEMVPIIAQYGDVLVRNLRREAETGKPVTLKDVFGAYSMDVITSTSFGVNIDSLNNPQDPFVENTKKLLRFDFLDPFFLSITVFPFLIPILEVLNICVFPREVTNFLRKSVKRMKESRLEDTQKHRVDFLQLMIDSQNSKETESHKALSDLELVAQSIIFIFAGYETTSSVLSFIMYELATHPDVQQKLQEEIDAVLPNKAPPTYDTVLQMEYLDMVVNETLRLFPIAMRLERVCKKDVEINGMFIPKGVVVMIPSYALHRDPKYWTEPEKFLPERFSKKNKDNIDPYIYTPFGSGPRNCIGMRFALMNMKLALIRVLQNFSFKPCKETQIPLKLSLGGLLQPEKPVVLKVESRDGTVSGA", "assay": "Cocktail CYP inhibition in human liver microsomes, CYP3A4 (dapsone)", "format": "in vitro ADME", "settings": "cocktail method, read-out: IC50 values, CYP3A4 in HLMs", "method": "We used the cocktail method to study the inhibition activities of DPTM against CYP enzymes in RLMs and HLMs with slight modification. DPTM (250 μmol) was dissolved in 1.25 mL methanol to a solution and then diluted with methanol and water to 2, 10, 20, 100, 200, 400, 1,000 and 2000 μM, respectively. The obtained serial dilutions (10 μL) were added to the incubation mixtures (200 μL total volume), containing 100 μL RLMs or HLMs (final concentration was 5 μg/μL, respectively), 10 μL glucose-6-phosphate (final concentration was 1 mM), 10 μL glucose-6-phosphate dehydrogenase (final concentration was 0.1 U/L), 20 μL potassium phosphate buffer (final concentration was 0.01 M) and 20 μL MgCl2 (final concentration was 2 mM), to give the final concentrations were 0.1, 0.5, 1, 5 10, 20, 50, and 100 μM, respectively. For the groups that in the absence of DPTM, 10 μL methanol (1%) replaced the DPTM and was added to the incubation mixtures. […] The final concentration of methanol in all the incubation mixtures, including the blank group, was […]. […] The determined metabolic substrates were used for calculating the relative enzyme activity (Erel) by the following formula: Erel (%) = Ci(n)/Ci(0) × 100%, in which Ci(n) was the determined metabolic substrates in the presence of varying concentrations of DPTM and Ci(0) was the determined metabolic substrates in the absence of DPTM. […]"}, "CYP3A4 mRNA": {"system": "CYP3A4 mRNA", "assay": "CYP3A4 mRNA expression in Hep G2 cells (real-time PCR)", "format": "cell-based, human", "settings": "2 and 4 h, 4.98, 0.16 and 0.08 mM", "method": "The logarithmic growth phase Hep G2 cells were seeded into 12-well plastic plates at a density of […]. After incubation at 37 °C under 5% CO2 for 24 h, the media were then replaced with 1 mL of serial dilutions of the DPTM (4.98, 0.16 and 0.08 mM) in fresh media. When cells were incubated for 2, 4 and 12 h at 37 °C under 5% CO2, the RNA was isolated using the Trizol reagent according to the manufacturer’s protocol. Total RNA (5 μL) was transcribed into cDNA by using the PrimeScript RT reagent Kit (Perfect Real Time). The obtained cDNA (5 μL) was added for 45 cycles of PCR amplification to detect the mRNA expression (the primers and sequences used herein were given in Table 3) using the ABI Villa TM7Dx real-time PCR system (Gaithersburg, USA). Glyceraldehyde-3-phosphate dehydrogenase (GAPDH) was used as reference gene. All reactions were performed in a final volume of 20 μL (10 μL of 2 × SYBR Green Real-time PCR Master Mix, 2 μL of cDNA and 2 μL of the primers and 6 μL DEPC water) and executed in triplicate."}, "S. typhimurium TA98": {"system": "S. typhimurium TA98", "assay": "Ames test, strain TA98", "format": "cell-based, Salmonella typhimurium", "settings": "− S9", "excerpt": "S. typhimurium strains TA97, TA98, TA100, TA102 and TA1535 were stored and maintained as provided in the standard protocol. Each of the strains was checked for their genetic integrity prior to the experiment, and tested for biotin dependence, histidine dependence, biotin and histidine dependence, rfa marker (crystal violet) and presence of the plasmid pKM101 (ampicillin resistance) or pAQ1 (tetracycline resistance). Different strains were used to identify different types of mutations.\nThe test was carried out at five different concentrations of DPTM. […] Then 1 mL solution was diluted with distilled water by two fold. […] The negative control used in this experiment was 1 mL DMSO which was directly incorporated into 9 mL melted top agar.\nThe Ames test of DPTM was conducted as described in the literatures[42],[43] with some modifications. Briefly, 1 mL of strain was inoculated into 5 mL of nutrient broth, followed by incubating overnight at 37 °C. The mixture comprised respective strains, drug, negative and positive controls with the S9 for testing in the presence of metabolic activation system. For testing without S9, 1 × phosphate buffer saline (PBS, pH 7.4) replaced the S9 mix. The obtained mixtures were added into the tube, mixed well and incubated at 37 °C for 20 min. Then, the top agar was melted and 2 mL of this melted top agar was added to each tube and gently mixed. […] The results were expressed as the number of revertant colonies per plate. The experiments were performed in triplicate."}, "[2]": {"parameters": "method as in PMID 30813235", "settings": "rats, intravenous administration; cited from earlier work"}}, "data": [{"compound": "C=CC1(C)CC(OC(=O)CSc2nc(N)cc(N)n2)C2(C)C(C)CCC3(CCC(=O)C32)C(C)C1O", "note": "(stereo not shown) [DPTM, 14-O-[(4,6-Diaminopyrimidine-2-yl)thioacetyl] mutilin]", "values": [{"measurement": "viability at 24 h, 4.98 mM", "setting": "[1]", "value": 79, "unit": "%"}, {"measurement": "IC50", "setting": "Hep G2 cells", "value": "10 ± 2", "unit": "mM"}, {"measurement": "IC50", "setting": "CYP3A4", "value": "0.008 ± 0.002", "unit": "mM"}, {"measurement": "CYP3A4 mRNA expression versus control", "setting": "CYP3A4 mRNA", "value": "significantly increase"}, {"measurement": "revertant colonies per plate, TA98", "setting": "S. typhimurium TA98; dose 0.25 μmol/plate", "value": "33 ± 6", "unit": "CFU"}, {"measurement": "revertant colonies per plate, TA98", "setting": "S. typhimurium TA98; dose 0.50 μmol/plate", "value": "30 ± 10", "unit": "CFU"}, {"measurement": "revertant colonies per plate, TA98", "setting": "S. typhimurium TA98; dose 1.00 μmol/plate", "value": "27 ± 8", "unit": "CFU"}, {"measurement": "revertant colonies per plate, TA98", "setting": "S. typhimurium TA98; dose 1.99 μmol/plate", "value": "32 ± 8", "unit": "CFU"}, {"measurement": "revertant colonies per plate, TA98", "setting": "S. typhimurium TA98; dose 3.98 μmol/plate", "value": "28 ± 11", "unit": "CFU"}, {"measurement": "half-life (t1/2)", "setting": "[2]", "value": "1.7 to 1.9", "unit": "h"}]}]}
